This note sets out measurements from patent US8664257B2, “Oxygen-substituted 3-heteroaroylamino-propionic acid derivatives and their use as pharmaceuticals” (Sanofi, priority 2010, dated 2014).

Broadly, the IC50 is the concentration that gives 50% inhibition.

The target in the first assay is T1, Recombinant human cathepsin A (Homo sapiens, UniProt P10619).
T1 construct: Recombinant human cathepsin A (residues 29-480, with a C-terminal 10-His tag); 10-His (C); purchased R&D Systems 1049-SE
T1 sequence (P10619 29-312 limits assumed): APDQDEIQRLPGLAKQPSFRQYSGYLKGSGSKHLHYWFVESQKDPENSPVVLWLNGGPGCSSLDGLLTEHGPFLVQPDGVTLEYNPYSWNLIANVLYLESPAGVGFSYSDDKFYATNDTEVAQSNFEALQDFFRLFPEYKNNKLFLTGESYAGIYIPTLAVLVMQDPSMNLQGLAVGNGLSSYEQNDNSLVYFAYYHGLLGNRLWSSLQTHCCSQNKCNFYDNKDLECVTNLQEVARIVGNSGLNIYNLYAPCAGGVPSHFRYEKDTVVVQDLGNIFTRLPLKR
T1 sequence (P10619 327-480 limits assumed): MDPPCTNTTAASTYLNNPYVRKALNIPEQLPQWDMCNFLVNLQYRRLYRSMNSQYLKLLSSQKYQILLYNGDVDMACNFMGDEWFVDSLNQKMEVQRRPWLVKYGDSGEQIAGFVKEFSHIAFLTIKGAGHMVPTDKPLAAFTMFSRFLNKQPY
As to the kind of experiment: Cathepsin A inhibitory activity. The format is biochemical. The conditions noted are these: pharmacological test "Cathepsin A inhibitory activity"; IC50 given as class A/B/C; read-out: Activity (2): Cathepsin A inhibitory activity, IC50 class. An outline of the steps:
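Human cathepsin A (res. 29-480, C-His10) pre-activated with cathepsin L (MES pH 6.0, DTT, 15 min, 37 °C; quenched with 10 μM E-64). Enzyme (833 ng/ml) preincubated 15 min RT with compound in MES pH 5.5/DTT, then 2 μM Bodipy FL-bradykinin for 15 min RT. Capillary electrophoresis product/substrate peak areas; IC50 from % inhibition.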
For the compound `O=C(O)C[C@H](NC(=O)c1cc(O)n(-c2ccccc2F)n1)c1ccc(-c2ccc(F)cc2)cc1` [Example 146], the IC50 lay in the range of 1000 to 30000 nM.
For the compound `Cc1ccc(C(CC(=O)O)NC(=O)c2cc(O)n(-c3ccccc3Cl)n2)c(C)c1` (centres unmarked) [Example 225], the concentration for half-maximal inhibition (IC50) fell in the range of 100 to 1000 nM.
Regarding `O=C(O)C[C@H](NC(=O)c1cc(O)n(-c2ccc(F)cc2F)n1)c1ccc(Cl)cc1Cl` [Example 201], the half-maximal inhibitory concentration (IC50) is 100 to 1000 nM.
The same measure, in the same setting: then `O=C(O)CC(NC(=O)c1cc(O)n(-c2ccc(F)cc2F)n1)c1cccc2c1OCO2` (centres unmarked) [Example 174], with 100 to 1000 nM; and `CCc1ccc(C(CC(=O)O)NC(=O)c2cc(O)n(-c3ccccc3Cl)n2)cc1` (centres unmarked) [Example 224], with 100 to 1000 nM.

Staying with this assay, now noted: read-out: Activity (2): Cathepsin A inhibitory activity (IC50 class).
Take `CC(C)C(C)(O)COc1cc(C(=O)N[C@@H](CC(=O)O)c2ccccc2Cl)nn1-c1ccccc1F` (stereo partly drawn) [Example 775, (S)-3-(2-Chloro-phenyl)-3-{[1-(2-fluoro-phenyl)-5-(2-hydroxy-2,3-dimethyl-butoxy)-1H-pyrazole-3-carbonyl]-amino}-propionic acid]: the IC50 was under 100 nM.
The same measure, in the same setting: the same measure for `CCOc1cc(C(=O)NC(CC(=O)O)c2cccc(C)c2C)nn1-c1ccccc1Cl` (centres unmarked) [Example 743]: under 100 nM.
Still for that read-out and setting: then `CCOc1cc(C(=O)N[C@@H](CC(=O)O)c2ccccc2C)nn1-c1ccccc1F` [Example 662], with under 100 nM; and `Cc1ccccc1[C@H](CC(=O)O)NC(=O)c1cc(OCC2CCOCC2)n(-c2ccccc2F)n1` [Example 627], with under 100 nM.
Still for that read-out and setting: the same measure for `Cc1ccccc1[C@H](CC(=O)O)NC(=O)c1cc(OCC2CC2(F)F)n(-c2ccccc2F)n1` (some centres unmarked) [Example 645]: under 100 nM.
For the compound `CCOc1cc(C(=O)N[C@@H](CC(=O)O)c2ccc(C(F)(F)F)cc2)nn1-c1ccccc1F` [Example 715], the half-maximal inhibitory concentration (IC50) is under 100 nM.
Consider `Cc1ccccc1[C@H](CC(=O)O)NC(=O)c1cc(OCCCF)n(-c2ccccc2F)n1` [Example 641], for which the IC50 was under 100 nM.
With `Cc1ccccc1[C@H](CC(=O)O)NC(=O)c1cc(OC2CCC2)n(-c2ccccc2F)n1` [Example 648], the IC50 is under 100 nM.
On to `CCOc1cc(C(=O)N[C@@H](CC(=O)O)c2ccc(C#N)cc2)nn1-c1ccccc1Cl` [Example 730], for which the IC50 was in the range of 100 to 1000 nM.
Turning to `CC(C)(C)[C@@](C)(O)COc1cc(C(=O)N[C@@H](CC(=O)O)c2cccc(F)c2)nn1-c1ccccc1F` [Example 779, (S)-3-(3-Fluoro-phenyl)-3-{[1-(2-fluoro-phenyl)-5-((R)-2-hydroxy-2,3,3-trimethyl-butoxy)-1H-pyrazole-3-carbonyl]-amino}-propionic acid], the IC50 is under 100 nM.
Consider `COc1ccc(C(CC(=O)O)NC(=O)c2cc(OC)n(-c3ccccc3F)n2)c(C)c1` (centres unmarked) [Example 672, 3-{[1-(2-Fluoro-phenyl)-5-methoxy-1H-pyrazole-3-carbonyl]-amino}-3-(4-methoxy-2-methyl-phenyl)-propionic acid], for which the IC50 was under 100 nM.
On the same count and under the same terms, the same measure for `O=C(O)CC(NC(=O)c1cc(O)n(-c2ccccc2)n1)c1ccc(-n2cncn2)cc1` (centres unmarked) [Example 563, 3-[(5-Hydroxy-1-phenyl-1H-pyrazole-3-carbonyl)-amino]-3-(4-[1,2,4]triazol-1-yl-phenyl)-propionic acid]: 1000 to 30000 nM.
`COc1ccc(F)c(C(CC(=O)O)NC(=O)c2cc(O)n(-c3ccccc3Cl)n2)c1` (centres unmarked) [Example 559, 3-{[1-(2-Chloro-phenyl)-5-hydroxy-1H-pyrazole-3-carbonyl]-amino}-3-(2-fluoro-5-methoxy-phenyl)-propionic acid]: the concentration for half-maximal inhibition (IC50) was in the range of 100 to 1000 nM.
Still for that read-out and setting: the same measure for `CC(C)(C)[C@@H](O)COc1cc(C(=O)N[C@@H](CC(=O)O)c2ccccc2Cl)nn1-c1ccccc1F` [Example 793, (S)-3-(2-Chloro-phenyl)-3-{[1-(2-fluoro-phenyl)-5-((R)-2-hydroxy-3,3-dimethyl-butoxy)-1H-pyrazole-3-carbonyl]-amino}-propionic acid]: under 100 nM.

Still in this assay, the particulars now being: read-out: Activity (2): Cathepsin A inhibitory activity, IC50 class.
Take `O=C(O)CC(NC(=O)c1cc(O)n(-c2ccccc2F)n1)c1cccc(Cl)c1` (centres unmarked) [Example 396]: the half-maximal inhibitory concentration (IC50) fell in the range of 100 to 1000 nM.
`CCCC(CC(=O)O)NC(=O)c1cc(O)n(-c2cc(C)ccc2C)n1` (centres unmarked) [Example 26]: the 50% inhibitory concentration (IC50) fell in the range of 1000 to 30000 nM.
Same read-out and setting: then `O=C(O)C[C@H](NC(=O)c1cc(O)n(-c2ccccc2Cl)n1)c1c(F)cccc1F` [Example 114], with 100 to 1000 nM; and `COc1ccc([C@H](CC(=O)O)NC(=O)c2cc(O)n(-c3ccc(Cl)cc3)n2)cn1` [Example 299], with 1000 to 30000 nM.
Turning to `O=C(O)CC(NC(=O)c1cc(O)n(-c2ccccc2)n1)c1cc(C(F)(F)F)cc(C(F)(F)F)c1` (centres unmarked) [Example 59], the IC50 fell in the range of 1000 to 30000 nM.
Take `CC(C)CC(CC(=O)O)NC(=O)c1cc(O)n(-c2ccccc2)n1` (centres unmarked) [Example 19]: the IC50 lay within 100 to 1000 nM.
Same read-out and setting: the same measure for `CC(C)C(C)(O)COc1cc(C(=O)N[C@H](CC(=O)O)Cc2ccccc2)nn1-c1ccccc1F` (stereo partly drawn) [Example 838, (S)-3-{[1-(2-Fluoro-phenyl)-5-(2-hydroxy-2,3-dimethyl-butoxy)-1H-pyrazole-3-carbonyl]-amino}-4-phenyl-butyric acid]: 1000 to 30000 nM; for `O=C(O)CC(NC(=O)c1cc(O)n(-c2ccccc2)n1)c1ccc(-c2ccc(F)cc2)cc1` (centres unmarked) [Example 104]: 100 to 1000 nM.
Same read-out and setting: then `COc1ccc(C(CC(=O)O)NC(=O)c2cc(O)n(-c3ccc(F)cc3F)n2)c(OC)c1` (centres unmarked) [Example 383], with 100 to 1000 nM.
The same measure, in the same setting: the same measure for `N#Cc1ccc([C@H](CC(=O)O)NC(=O)c2cc(O)n(-c3ccccc3F)n2)cc1` [Example 123]: 100 to 1000 nM.
In the case of `O=C(O)C[C@H](NC(=O)c1cc(O)n(-c2cccc(F)c2)n1)c1ccc(C(F)(F)F)cc1` [Example 313], the half-maximal inhibitory concentration (IC50) lay in the range of 1000 to 30000 nM.
In the case of `CC(C)(C)[C@@](C)(O)COc1cc(C(=O)N[C@@H](CC(=O)O)c2ccccc2F)nn1-c1ccccc1F` [Example 854, (S)-3-(2-Fluoro-phenyl)-3-{[1-(2-fluoro-phenyl)-5-((R)-2-hydroxy-2,3,3-trimethyl-butoxy)-1H-pyrazole-3-carbonyl]-amino}-propionic acid], the IC50 is 100 to 1000 nM.
Still for that read-out and setting: then `COc1ccc(C(CC(=O)O)NC(=O)c2cc(O)n(-c3ccc(F)cc3F)n2)c(C)c1` (centres unmarked) [Example 379], with 100 to 1000 nM; and `COc1ccccc1[C@H](CC(=O)O)NC(=O)c1cc(OC[C@@](C)(O)C(C)(C)C)n(-c2ccccc2F)n1` [Example 810, (S)-3-{[1-(2-Fluoro-phenyl)-5-((S)-2-hydroxy-2,3,3-trimethyl-butoxy)-1H-pyrazole-3-carbonyl]-amino}-3-(2-methoxy-phenyl)-propionic acid], with under 100 nM.
For the compound `CC(C)[C@](C)(O)COc1cc(C(=O)NC(CC(=O)O)Cc2ccccc2)nn1-c1ccccc1F` (stereo partly drawn) [Example 826, 3-{[1-(2-Fluoro-phenyl)-5-((S)-2-hydroxy-2,3-dimethyl-butoxy)-1H-pyrazole-3-carbonyl]-amino}-4-phenyl-butyric acid], the half-inhibitory concentration (IC50) lay in the range of 100 to 1000 nM.
Regarding `O=C(O)CC(NC(=O)c1cc(O)n(-c2cccc(F)c2)n1)c1cccc(C(F)(F)F)c1` (centres unmarked) [Example 304], the IC50 lay in the range of 100 to 1000 nM.
On the same count and under the same terms, then `O=C(O)CC(NC(=O)c1cc(O)n(-c2ccccc2)n1)c1cccc(C(F)(F)F)c1` (centres unmarked) [Example 67], with 100 to 1000 nM.

Staying with this assay, now noted: recombinant human cathepsin A 833 ng/ml, Bodipy FL-labeled bradykinin 2 μM, pH 5.5; read-out: CATH-A IC50.
`Cc1ccc(F)cc1C(CC(=O)O)NC(=O)c1cc(O)n(-c2ccccc2Cl)n1` (centres unmarked) [Example 461, 3-{[1-(2-Chloro-phenyl)-5-hydroxy-1H-pyrazole-3-carbonyl]-amino}-3-(5-fluoro-2-methyl-phenyl)-propionic acid]: the concentration for half-maximal inhibition (IC50) was found to be 151 nM.
Take `Cc1ccc([C@H](CC(=O)O)NC(=O)c2cc(O)n(-c3ccc(F)cc3F)n2)cc1` [Example 454, (S)-3-{[1-(2,4-Difluoro-phenyl)-5-hydroxy-1H-pyrazole-3-carbonyl]-amino}-3-p-tolyl-propionic acid]: the half-inhibitory concentration (IC50) is 186 nM.
The same measure, in the same setting: then `O=C(O)CC(NC(=O)c1cc(O)n(-c2ccc(F)cc2F)n1)c1cc(F)ccc1C(F)(F)F` (centres unmarked) [Example 452, 3-{[1-(2,4-Difluoro-phenyl)-5-hydroxy-1H-pyrazole-3-carbonyl]-amino}-3-(5-fluoro-2-trifluoromethyl-phenyl)-propionic acid], with 139 nM; and `O=C(O)CC(NC(=O)c1cc(O)n(-c2ccc(F)cc2F)n1)c1cccc2c1OC(F)(F)O2` (centres unmarked) [Example 450, 3-(2,2-Difluoro-benzo[1,3]dioxol-4-yl)-3-{[1-(2,4-difluoro-phenyl)-5-hydroxy-1H-pyrazole-3-carbonyl]-amino}-propionic acid], with 409 nM; and `O=C(O)CC(NC(=O)c1cc(O)n(-c2ccccc2)n1)c1ccc(-n2cncn2)cc1` (centres unmarked) [Example 563, 3-[(5-Hydroxy-1-phenyl-1H-pyrazole-3-carbonyl)-amino]-3-(4-[1,2,4]triazol-1-yl-phenyl)-propionic acid], with 1740 nM.
Regarding `COc1ccc(F)c(C(CC(=O)O)NC(=O)c2cc(O)n(-c3ccccc3Cl)n2)c1` (centres unmarked) [Example 559, 3-{[1-(2-Chloro-phenyl)-5-hydroxy-1H-pyrazole-3-carbonyl]-amino}-3-(2-fluoro-5-methoxy-phenyl)-propionic acid], the half-inhibitory concentration (IC50) is 731 nM.

Still in this assay, the particulars now being: recombinant human cathepsin A; read-out: Activity (2): Cathepsin A inhibitory activity, IC50 class.
`Cc1ccc(F)cc1C(CC(=O)O)NC(=O)c1cc(O)n(-c2ccccc2Cl)n1` (centres unmarked) [Example 461, 3-{[1-(2-Chloro-phenyl)-5-hydroxy-1H-pyrazole-3-carbonyl]-amino}-3-(5-fluoro-2-methyl-phenyl)-propionic acid]: the IC50 was 100 to 1000 nM.
On the same count and under the same terms, then `Cc1ccc([C@H](CC(=O)O)NC(=O)c2cc(O)n(-c3ccc(F)cc3F)n2)cc1` [Example 454, (S)-3-{[1-(2,4-Difluoro-phenyl)-5-hydroxy-1H-pyrazole-3-carbonyl]-amino}-3-p-tolyl-propionic acid], with 100 to 1000 nM; and `CCC(COC)NC(=O)C[C@H](NC(=O)c1cc(OC)n(-c2ccccc2F)n1)c1ccccc1C` (stereo partly drawn) [Example 921, 1-(2-Fluoro-phenyl)-5-methoxy-1H-pyrazole-3-carboxylic acid [(S)-2-(1-methoxymethyl-propylcarbamoyl)-1-o-tolyl-ethyl]-amide], with 1000 to 30000 nM; and `O=C(O)CC(NC(=O)c1cc(O)n(-c2ccc(F)cc2F)n1)c1cc(F)ccc1C(F)(F)F` (centres unmarked) [Example 452, 3-{[1-(2,4-Difluoro-phenyl)-5-hydroxy-1H-pyrazole-3-carbonyl]-amino}-3-(5-fluoro-2-trifluoromethyl-phenyl)-propionic acid], with 100 to 1000 nM.
Same read-out and setting: the same measure for `O=C(O)CC(NC(=O)c1cc(O)n(-c2ccc(F)cc2F)n1)c1cccc2c1OC(F)(F)O2` (centres unmarked) [Example 450, 3-(2,2-Difluoro-benzo[1,3]dioxol-4-yl)-3-{[1-(2,4-difluoro-phenyl)-5-hydroxy-1H-pyrazole-3-carbonyl]-amino}-propionic acid]: 100 to 1000 nM.
